Test results from US20190343908A1, “Therapeutic Combination for the Treatment of Cancer” (Nerium Biotechnology Inc., priority 2011, published 2019).

How the values were obtained:
[1] = test system: 22Rv1 (human prostate cancer); test: Methyl-Tetrazolium (MTT) viability assay, 22Rv1; assay type: cell-based; conditions: for Average absorbance, MTT 24 h / Average absorbance, MTT 48 h / Average absorbance, MTT 72 h: 22Rv1 Run 3
From the text: Three different viability assays were chosen to complement each other and yielded results dependent on concentration and cell line: the Methyl Tetrazolium dye assay, the Sulforhodamine B fluorescent dye assay, and the Crystal Violet dye assay.
The Methyl-Tetrazolium dye assay measures the activity of enzymes in mitochondria. The dye precursor is taken up by cells, where it undergoes reduction to the purple formazan. It measures only the mitochondrial activity and, thus, it is not always a reliable indication of whether the cells themselves are alive or dead, since even a recently dead cell has […] enzyme activity in mitochondria. Intracellular glucose concentration, pH, and time before assay all affect the measurements.
(§1) The Methyl Tetrazolium, Sulforhodamine B, and Crystal Violet assays were used to assess cell viabilities. The incubation times were 24 hours, 48 hours, and 72 hours. The Nerium oleander extract Anvirzel™ (a hot water extract of oleander obtained from Salud Integral, Honduras) was tested in concentrations ranging from 0.01 ng/mL to 10 ng/mL.
(§2) Cells were detached by trypsinization (Trypsin-0.25% EDTA, Invitrogen, 25200-072) during the logarithmic phase of culture growth and plated in 96-well plates (18.000 cells/well) (Corning, Costar 359) in a final volume of 200 μl of medium per well. […] The absorbance was measured after 24 hours, 48 hours, and 72 hours of incubation.
For the Methyl-Tetrazolium assay, the dye (Sigma, M2128; 5 mg/mL, diluted in phosphate-buffered saline) was added to each well and plates were incubated for 3 hours at 37° C. After the end of the incubation period, the medium was discarded and the cells were rinsed with phosphate-buffered saline. Finally, the formazan crystals were dissolved in dimethylsulphoxide (Sigma, D4540).
(§3) The optical density of each plate was measured on a μQuant spectrophotometer and the data were analyzed with Gen5 software (μQuant Biomolecular Spectrophotometer MQX200 and Gen5™ Microplate Data Collection & Analysis software, BioTek® Instruments. Inc, April 2008). Absorbance was measured at 570 nm for all assays and a second wavelength was measured in order to subtract noise. For the Methyl-Tetrazolium assay this second wavelength was 630 nm and for the Sulforhodamine B and Crystal Violet assays it was 690 nm.

[2] = test system: 22Rv1 (human prostate cancer); test: Crystal Violet (CVE) viability assay, 22Rv1; assay type: cell-based; conditions: for Average absorbance, CVE 24 h / Average absorbance, CVE 48 h / Average absorbance, CVE 72 h: 22Rv1 Run 3
From the text: The Sulforhodamine B and Crystal Violet assays provide information about protein and were used to complement the Methyl-Tetrazolium dye assay. […] It is used for the quantification of cellular proteins of cultured cells. The assay using Crystal Violet, a dye that binds electrostatically to proteins and stains DNA, provides a reliable, simple assay for measuring viability of cells.
as §1, §2
For the Crystal Violet assay, the medium was removed from the 96-well plates, the plates rinsed with PBS (Sigma, P3813) and then the cells were […] by the addition of 10% formalin (MERCK, 1.04003.2500) for 20 minutes at RT. Formalin was removed and 0.25% aqueous crystal violet (Sigma, HT901), dissolved in water, was added for 10 minutes at RT. Unbound Crystal Violet was rinsed by washing with water and finally 33% acetic acid was added to dissolve the dye.
as §3

N.N.[Cl][Pt][Cl] [cisplatin]
MTT 72 h Average ([1]; 22Rv1 Run 2, 1 μg/ml CDDP): 0.016 | MTT 24 h Average ([1]; 22Rv1 Run 2, 10 μg/ml CDDP): 0.019 | MTT 48 h Average ([1]; 22Rv1 Run 2, 10 μg/ml CDDP): 0.016 | MTT 72 h Average ([1]; 22Rv1 Run 2, 10 μg/ml CDDP): 0.013 | MTT 24 h Average ([1]; 22Rv1 Run 2, 100 μg/ml CDDP): 0.009 | MTT 48 h Average ([1]; 22Rv1 Run 2, 100 μg/ml CDDP): 0.008 | MTT 72 h Average ([1]; 22Rv1 Run 2, 100 μg/ml CDDP): 0.008 | Average absorbance, MTT 24 h ([1]; 0.1 μg/ml CDDP): 0.08 | Average absorbance, MTT 48 h ([1]; 0.1 μg/ml CDDP): 0.135 | Average absorbance, MTT 72 h ([1]; 0.1 μg/ml CDDP): 0.128 | Average absorbance, MTT 24 h ([1]; 1 μg/ml CDDP): 0.015 | Average absorbance, MTT 48 h ([1]; 1 μg/ml CDDP): 0.016 | Average absorbance, MTT 72 h ([1]; 1 μg/ml CDDP): 0.015 | Average absorbance, MTT 24 h ([1]; 10 μg/ml CDDP): 0.023 | Average absorbance, MTT 48 h ([1]; 10 μg/ml CDDP): 0.017 | Average absorbance, MTT 72 h ([1]; 10 μg/ml CDDP): 0.013 | Average absorbance, MTT 24 h ([1]; 100 μg/ml CDDP): 0.011 | Average absorbance, MTT 48 h ([1]; 100 μg/ml CDDP): 0.011 | Average absorbance, MTT 72 h ([1]; 100 μg/ml CDDP): 0.011 | CVE 24 h Average ([2]; 22Rv1 Run 1, 0.1 μg/ml CDDP): 0.27 | CVE 48 h Average ([2]; 22Rv1 Run 1, 0.1 μg/ml CDDP): 0.501 | CVE 72 h Average ([2]; 22Rv1 Run 1, 0.1 μg/ml CDDP): 0.803 | CVE 24 h Average ([2]; 22Rv1 Run 1, 1 μg/ml CDDP): 0.152 | CVE 48 h Average ([2]; 22Rv1 Run 1, 1 μg/ml CDDP): 0.437 | CVE 72 h Average ([2]; 22Rv1 Run 1, 1 μg/ml CDDP): 0.606 | CVE 48 h Average ([2]; 22Rv1 Run 1, 10 μg/ml CDDP): 0.351 | CVE 72 h Average ([2]; 22Rv1 Run 1, 10 μg/ml CDDP): 0.439 | CVE 24 h Average ([2]; 22Rv1 Run 1, 100 μg/ml CDDP): 0.124 | CVE 48 h Average ([2]; 22Rv1 Run 1, 100 μg/ml CDDP): 0.273 | CVE 72 h Average ([2]; 22Rv1 Run 1, 100 μg/ml CDDP): 0.233 | CVE 24 h Average ([2]; 22Rv1 Run 2, 0.1 μg/ml CDDP): 0.541 | CVE 48 h Average ([2]; 22Rv1 Run 2, 0.1 μg/ml CDDP): 0.776 | CVE 72 h Average ([2]; 22Rv1 Run 2, 0.1 μg/ml CDDP): 0.784 | CVE 24 h Average ([2]; 22Rv1 Run 2, 1 μg/ml CDDP): 0.305 | CVE 48 h Average ([2]; 22Rv1 Run 2, 1 μg/ml CDDP): 0.517 | CVE 72 h Average ([2]; 22Rv1 Run 2, 1 μg/ml CDDP): 0.286 | CVE 24 h Average ([2]; 22Rv1 Run 2, 10 μg/ml CDDP): 0.376 | CVE 48 h Average ([2]; 22Rv1 Run 2, 10 μg/ml CDDP): 0.434 | CVE 72 h Average ([2]; 22Rv1 Run 2, 10 μg/ml CDDP): 0.206 | CVE 24 h Average ([2]; 22Rv1 Run 2, 100 μg/ml CDDP): 0.228 | CVE 48 h Average ([2]; 22Rv1 Run 2, 100 μg/ml CDDP): 0.228 | CVE 72 h Average ([2]; 22Rv1 Run 2, 100 μg/ml CDDP): 0.256 | Average absorbance, CVE 24 h ([2]; 0.1 μg/ml CDDP): 0.85 | Average absorbance, CVE 48 h ([2]; 0.1 μg/ml CDDP): 0.644 | Average absorbance, CVE 72 h ([2]; 0.1 μg/ml CDDP): 0.45 | Average absorbance, CVE 24 h ([2]; 1 μg/ml CDDP): 0.434 | Average absorbance, CVE 48 h ([2]; 1 μg/ml CDDP): 0.404 | Average absorbance, CVE 72 h ([2]; 1 μg/ml CDDP): 0.284 | Average absorbance, CVE 24 h ([2]; 10 μg/ml CDDP): 0.295 | Average absorbance, CVE 48 h ([2]; 10 μg/ml CDDP): 0.289 | Average absorbance, CVE 72 h ([2]; 10 μg/ml CDDP): 0.283 | Average absorbance, CVE 24 h ([2]; 100 μg/ml CDDP): 0.215 | Average absorbance, CVE 48 h ([2]; 100 μg/ml CDDP): 0.212 | Average absorbance, CVE 72 h ([2]; 100 μg/ml CDDP): 0.234
